Source: patent publication US20080260850A1, “Delivery System For Bioactive Agents on the Basis of a Polymeric Drug Carrier Comprising an Amphiphilic Block Polymer and a Polylacticacid Derivative” (SAMYANG CORPORATION, priority 2004, published 2008)

Legend:
[1] = test system: MES-SA (doxorubicin-sensitive cell line); experiment: Intracellular uptake, flow cytometry (FACS); type: cell-based, human; details: 1.0 μg/ml
Protocol: (§1) The flow cytometry study was performed with the FACStarPlus (Becton Dickinson) according to the method of Walker et al. (Experimental Cell Research 207: 142 (1993)). Briefly, cells (1.0×10^6) were incubated in McCoy's 5A medium (Invitrogen Corp.) supplemented with 10% fetal bovine serum and 1% penicillin streptomycin. After a 24-hour incubation period, the cells were treated with the drug composition at a dose of 1.0 μg/ml.

[2] = test system: MES-SA/Dx-5 (doxorubicin-resistant cell line); experiment: Intracellular uptake, flow cytometry (FACS); type: cell-based, human; details: MES-SA/Dx-5, 1.0 μg/ml
Protocol: as §1

[3] = test system: MES-SA (doxorubicin-sensitive cell line); experiment: In vitro cytotoxicity, MTT assay; type: cell-based
Protocol: (§2) MTT assay is well established method for cytotoxicity test. When the cells are treated with MTT (methylthiazoletetrazolium), the MTT-formazan is produced from reduction of MTT-tetrazolium by enzymes present in living cells only (dead cells cannot reduce the MTT-tetrazolium to MTT-formazan). The fluorescence of the MTT-formazan is detected by a fluorescence reader and the optical density correlates with the number of cells.
(§3) The cytotoxic activity of each composition was evaluated in both human tumor cell lines at five ten-fold dilutions ranging from 0.01 to 100 μg/ml. […] The MTT-formazan produced from reduction of MTT-tetrazolium by enzymes present in the living cells was detected by a fluorescence reader. The optical density correlates with the number of cells. […] The MTT assay was performed essentially according to the method of Carmichael et al. (Cancer Research 47: 936 (1987)). Briefly, cells were harvested from an exponential phase culture growing in McCoy's 5A medium (Invitrogen Corp.) supplemented with 10% fetal bovine serum and 1% penicillin streptomycin, counted and plated in 96 well flat-bottomed microtiter plates (100 cell suspension, 5×10^4 cells/ml for each cell line). After a 24 h recovery to allow the cells to resume exponential growth, a culture medium (24 control wells per plate) or culture medium containing drug was added to the wells. Each drug concentration was plated in triplicate. […] Fluorescence was measured using an automatic microplate reader (SpectraMax 190, Molecular Devices) at a wavelength of 549 nm, and the number of viable cells was calculated from the optical density.

[4] = test system: MES-SA/Dx-5 (doxorubicin-resistant cell line); experiment: In vitro cytotoxicity, MTT assay; type: cell-based
Protocol: as §2, §3

[5] = rat, in vivo, iv, 5 mg/kg
Protocol: The rats (5 rats for each formulation) were injected intravenously through the tail vein at a dose of 5 mg/kg. The blood samples were collected from the tail vein at 1, 5, 15, 30 minutes and 1, 2, 4, 8, and 24 hours after the drug injection. The blood samples were immediately centrifuged, and the plasma was separated. The plasma samples were stored at −50° C. until analysis. Doxorubicin was analyzed by HPLC assay described in example 1.

Compound: COc1cccc2c1C(=O)c1c(O)c3c(c(O)c1C2=O)C[C@@](O)(C(=O)CO)C[C@@H]3O[C@H]1C[C@H](N)[C@H](O)[C@H](C)O1.Cl [Free-Dox, doxorubicin hydrochloride]
- Change of (Δ) Fluorescence Intensity ([1]; time 0 hr): 0.0
- Number of cells(%) which absorbed the drug ([1]; time 0 hr): 1.0%
- Change of (Δ) Fluorescence Intensity ([1]; time 1 hr): 7.6
- Number of cells(%) which absorbed the drug ([1]; time 1 hr): 4.0%
- Change of (Δ) Fluorescence Intensity ([1]; time 4 hr): 20.6
- Number of cells(%) which absorbed the drug ([1]; time 4 hr): 11.3%
- Change of (Δ) Fluorescence Intensity ([1]; time 8 hr): 40.6
- Number of cells(%) which absorbed the drug ([1]; time 8 hr): 35.1%
- Change of (Δ) Fluorescence Intensity ([2]; time 0 hr): 0.0
- Number of cells(%) which absorbed the drug ([2]; time 0 hr): 1.0%
- Change of (Δ) Fluorescence Intensity ([2]; time 1 hr): 2.6
- Number of cells(%) which absorbed the drug ([2]; time 1 hr): 1.8%
- Change of (Δ) Fluorescence Intensity ([2]; time 4 hr): 7.1
- Number of cells(%) which absorbed the drug ([2]; time 4 hr): 3.2%
- Change of (Δ) Fluorescence Intensity ([2]; time 8 hr): 9.2
- Number of cells(%) which absorbed the drug ([2]; time 8 hr): 5.3%
- MTT Assay IC50 ([3]; time 24 hr): 0.30 µg/mL
- MTT Assay IC50 ([3]; time 48 hr): 0.087 µg/mL
- MTT Assay IC50 ([3]; time 72 hr): 0.031 µg/mL
- MTT Assay IC50 ([4]; MES-SA/Dx-5, time 24 hr): 54.0 µg/mL
- MTT Assay IC50 ([4]; MES-SA/Dx-5, time 48 hr): 0.92 µg/mL
- MTT Assay IC50 ([4]; MES-SA/Dx-5, time 72 hr): 0.75 µg/mL
- AUC [5]: 1300 ng·h/mL
